Assay results taken from article PMC12116657, “A “proto” type galectin expressed in striped bass (Morone saxatilis) tissues is released to epidermal mucus and binds to bacterial and mucus glycans” (Frontiers in Cellular and Infection Microbiology, 2025).

Key:
[1] = tested on: proto type galectin from zebrafish (Danio rerio); settings: relative to Galβ1,4Glc = 1.0; comparison values, reference not given; cited from earlier work
[2] = tested on: proto type galectin from toad (Bufo arenarum); settings: relative to Galβ1,4Glc = 1.0; comparison values, reference not given; cited from earlier work
[3] = tested on: proto type galectin from domestic cow (Bos taurus); settings: relative to Galβ1,4Glc = 1.0; comparison values, reference not given; cited from earlier work
[4] = tested on: Msgal1-L1; experiment: Solid-phase binding-inhibition assay: rMsgal1-L1-HRP binding to asialofetuin (ASF) inhibited by carbohydrates; parameters: species or system Morone saxatilis; settings: for Relative inhibitory activity, Morone saxatilis: I50 normalized to Galβ1,4Glc (lactose) = 1.0, rMsgal1-L1-HRP binding to ASF, pH 8.0, 23°C, 10 mM ME
Protocol: Binding of the rMsgal1-L1–HRP to asialofetuin (ASF) and its inhibition by carbohydrates were assessed and optimized as reported elsewhere ([Ahmed et al., 1996], [2002]). […] Thus, the inhibition of galectin binding to immobilized ASF by mono- and oligosaccharides is a standard system to analyze the fine specificity of novel galectins. Briefly, ASF (0.5 μg/100 μl/well) in 0.1 M Na2CO3/0.02% NaN3 (pH 9.6) was adsorbed onto the plastic wells (37°C, 3 h) and the bound glycoprotein was fixed with 2% formaldehyde (37°C, 30 min). The plates were washed three times with PBS (azide-free)/0.05% Tween 20, and incubated with the Msgal1-L1–HRP conjugate (10 ng/100 μl/well for binding assays) or with a pre-incubated mixture of equal volume of conjugate and varying concentrations of test ligands (for binding-inhibition assays). After incubation (4°C, 1 h) the plates were washed with ice-cold azide-free PBS-Tween 20 buffer and the bound peroxidase activity was assayed with 2,2’-azino-bis(3-ethylbenzothiazoline-6-sulfonic acid) (ABTS) as previously described ([Ahmed et al., 1996]).
The carbohydrate-binding specificity of Msgal1-L1 was determined by analyzing the binding of the rMsgal1-L1–HRP conjugate to ASF in the presence of several saccharides in a solid-phase assay under the optimal conditions of pH and temperature established above (pH 8.0; 23°C) and under a reducing environment (10 mM ME) ([Ahmed et al., 1996], [2002]). For each test saccharide, a complete inhibition curve was obtained, and the molar concentrations that inhibited the binding of the lectin conjugate to ASF by 50% (I 50) were calculated and normalized with respect to Galβ1,4Glc (lactose), which was included in each plate as a standard ( Table 2 ). The binding-inhibition profile for Msgal1-L1 was generally similar to those for proto type galectins from zebrafish (D. rerio), toad (B. arenarum), and domestic cow (Bos taurus). […] The presence of a fucose unit linked in α1,2 to the non-reducing Gal moiety decreased the inhibitory effectiveness in about one-third as compared to lactose, most likely by steric hindrance of the protein–Gal interaction. […] A hydrophobic phenyl group linked to the reducing end of Galβ1,3GlcNAc strengthened the Msgal1-L1 interaction with the ligand 6.5-fold.

[5] = tested on: striped bass epidermal mucus; experiment: Dot blot binding to untreated and glycosidase-treated epidermal mucus fractions; parameters: species or system Morone saxatilis; settings: pre-incubation of rMsgal1-L1 with lactose 200 mM; inhibition not complete
Protocol: The crude epidermal mucus was cleared of particulate matter and fractionated by centrifugation at 17,000 rpm for 45 min at 4°C, resulting in three distinct layers: a clear upper layer of lower viscosity, an opaque more viscous layer immediately below that likely contain the highest concentration of mucins, and a loose pellet of solid cellular debris. Fractions obtained from multiple centrifugations were separated and corresponding layers were pooled as “clear upper layer pool” and “viscous intermediate layer pool.”
Pooled mucus layers were treated with N-glycosidase F [peptide-N ^4-(acetyl-β-glucosaminyl) asparagine amidase], O-glycosidase (O-glycopeptide endo-D-galactosyl-N-acetyl-α-galactosamino hydrolase, Roche), endoglycosidase H, or all three enzymes combined. […]
Aliquots (100 μL/well) of untreated or glycosidase-treated epidermal mucus pooled layers were dot-blotted onto PVDF membranes using a Bio-Dot Microfiltration Apparatus (Bio-Rad) under vacuum in replicate wells. […] For detection of endogenous ligands for Msgal1-L1, the membranes were blocked in 5% BSA/PBS, probing with rMsgal1-L1–HRP with or without lactose (200 mM), and detected with Stable-DAB (Invitrogen).

OC[C@H]1O[C@@H](S[C@@H]2O[C@H](CO)[C@H](O)[C@H](O)[C@H]2O)[C@H](O)[C@@H](O)[C@H]1O [Galβ1S1βGal, Thiodigalactoside]
Relative inhibitory activity, Danio rerio [1]: 12.2
Relative inhibitory activity, Bufo arenarum [2]: 3.9
Relative inhibitory activity, Bos taurus [3]: 9.0
Relative inhibitory activity, Morone saxatilis [4]: 10.0
Relative inhibitory activity, Morone saxatilis ([4]; listed as Thiodigalactoside): approximately 10

Fucα1,2Galβ1,4Glc
Relative inhibitory activity, Danio rerio [1]: 0.35
Relative inhibitory activity, Bufo arenarum [2]: 0.17
Relative inhibitory activity, Bos taurus [3]: 0.36
Relative inhibitory activity, Morone saxatilis [4]: 0.33

CC(=O)N[C@H]1C(O)O[C@H](CO)[C@H](O)[C@@H]1OC1O[C@H](CO)[C@H](O)[C@H](O)[C@H]1O (stereo partly shown) [Gal1,3GalNAc]
Inhibitory effect (in words) ([4]; Msgal1-L1 binding inhibition): negligible

CC(=O)N[C@H]1[C@H](Oc2ccc([N+](=O)[O-])cc2)O[C@H](CO)[C@@H](O)[C@@H]1O[C@@H]1O[C@H](CO)[C@H](O)[C@H](O)[C@H]1O [Galβ1-3GlcNacβ-OPhNO2 (p)]
Relative inhibitory activity, Danio rerio [1]: 2.3
Relative inhibitory activity, Bufo arenarum [2]: 1.78
Relative inhibitory activity, Bos taurus [3]: 4.5
Relative inhibitory activity, Morone saxatilis [4]: 6.5

Galβ1,6GlcNAc
Relative inhibitory activity, Danio rerio [1]: 0.03
Relative inhibitory activity, Bufo arenarum [2]: 0.83
Relative inhibitory activity, Bos taurus [3]: 0.12
Relative inhibitory activity, Morone saxatilis [4]: 0.225

OC[C@H]1O[C@H](OCC2O[C@@H](O)[C@H](O)[C@@H](O)[C@@H]2O)[C@H](O)[C@@H](O)[C@H]1O (stereo partly shown) [Galα1,6Glc]
Relative inhibitory activity, Danio rerio [1]: 0.004
Relative inhibitory activity, Bufo arenarum [2]: 0.0075
Relative inhibitory activity, Bos taurus [3]: 0.0053
Relative inhibitory activity, Morone saxatilis [4]: 0.019

O=C[C@H](O)[C@@H](O)[C@@H](O)[C@H](O)CO [Gal, D-galactose]
Relative inhibitory activity, Danio rerio [1]: 0.004
Relative inhibitory activity, Bufo arenarum [2]: 0.005
Relative inhibitory activity, Bos taurus [3]: 0.0079
Relative inhibitory activity, Morone saxatilis [4]: 0.007

OC[C@H]1O[C@@H](O[C@H]2[C@H](O)[C@@H](O)[C@H](O)O[C@@H]2CO)[C@H](O)[C@@H](O)[C@H]1O [Galβ1,4Glc, lactose]
Relative inhibitory activity, Danio rerio [1]: 1.0
Relative inhibitory activity, Bufo arenarum [2]: 1.0
Relative inhibitory activity, Bos taurus [3]: 1.0
Relative inhibitory activity, Morone saxatilis [4]: 1.0
Inhibition of Msgal1-L1 binding to mucus layers [5]: substantially reduced

CO[C@@H]1O[C@H](CO)[C@H](O)[C@H](O)[C@H]1O [Galβ-OMe]
Relative inhibitory activity, Danio rerio [1]: 0.004
Relative inhibitory activity, Bufo arenarum [2]: 0.006
Relative inhibitory activity, Bos taurus [3]: 0.0044
Relative inhibitory activity, Morone saxatilis [4]: 0.009

CO[C@H]1O[C@H](CO)[C@H](O)[C@H](O)[C@H]1O [Galα-OMe]
Relative inhibitory activity, Danio rerio [1]: 0.006
Relative inhibitory activity, Bufo arenarum [2]: 0.03
Relative inhibitory activity, Bos taurus [3]: 0.01
Relative inhibitory activity, Morone saxatilis [4]: 0.027

CC(=O)N[C@H]1C(O)O[C@H](CO)[C@@H](O[C@@H]2O[C@H](CO)[C@H](O)[C@H](O)[C@H]2O)[C@@H]1O (stereo partly shown) [Galβ1,4GlcNac, N-acetyllactosamine]
Relative inhibitory activity, Danio rerio [1]: 7.9
Relative inhibitory activity, Bufo arenarum [2]: 3.75
Relative inhibitory activity, Bos taurus [3]: 5.54
Relative inhibitory activity, Morone saxatilis [4]: 3.07
Relative inhibitory activity, Morone saxatilis ([4]; listed as Galβ1,4GlcNAc): approximately 3

CC(=O)N[C@H]1[C@H](O[C@H]2[C@H](O)[C@@H](CO)OC(O)[C@@H]2O)O[C@H](CO)[C@H](O)[C@@H]1O (stereo partly shown) [GalNacβ1,3Glc]
Relative inhibitory activity, Bufo arenarum [2]: 4.45
Relative inhibitory activity, Morone saxatilis [4]: 2.8

OC[C@H]1O[C@@H](O[C@H]2[C@@H](O)COC(O)[C@@H]2O)[C@H](O)[C@@H](O)[C@H]1O (stereo partly shown) [Galβ1,3Ara]
Relative inhibitory activity, Danio rerio [1]: 2.1
Relative inhibitory activity, Bufo arenarum [2]: 1.28
Relative inhibitory activity, Bos taurus [3]: 2.56
Relative inhibitory activity, Morone saxatilis [4]: 4.10

CO[C@H]1[C@H](O[C@H]2[C@H](O)[C@@H](O)C(O)O[C@@H]2CO)O[C@H](CO)[C@H](O)[C@@H]1O (stereo partly shown) [MeO-2Galβ1,4Glc]
Relative inhibitory activity, Danio rerio [1]: 2.9
Relative inhibitory activity, Bufo arenarum [2]: 2.5
Relative inhibitory activity, Bos taurus [3]: 4.08
Relative inhibitory activity, Morone saxatilis [4]: 3.33

Nc1ccc(O[C@@H]2O[C@H](CO)[C@@H](O[C@@H]3O[C@H](CO)[C@H](O)[C@H](O)[C@H]3O)[C@H](O)[C@H]2O)cc1 [Galβ1,4Glcβ-OPhNH2 (p)]
Relative inhibitory activity, Danio rerio [1]: 1.4
Relative inhibitory activity, Bufo arenarum [2]: 1.71
Relative inhibitory activity, Bos taurus [3]: 1.48
Relative inhibitory activity, Morone saxatilis [4]: 2

CO[C@@H]1O[C@H](CO)[C@@H](O[C@@H]2O[C@H](CO)[C@H](O)[C@H](O)[C@H]2O)[C@H](O)[C@H]1O [Galβ1,4Glcβ(1-0)Me]
Relative inhibitory activity, Danio rerio [1]: 2.9
Relative inhibitory activity, Bufo arenarum [2]: 2.14
Relative inhibitory activity, Bos taurus [3]: 1.33
Relative inhibitory activity, Morone saxatilis [4]: 1.74

OC[C@H]1O[C@@H](O[C@H]2[C@H](O)[C@H](O)C(O)O[C@@H]2CO)[C@H](O)[C@@H](O)[C@H]1O (stereo partly shown) [Galβ1,4Man]
Relative inhibitory activity, Danio rerio [1]: 1.5
Relative inhibitory activity, Bufo arenarum [2]: 2.5
Relative inhibitory activity, Bos taurus [3]: 2.34
Relative inhibitory activity, Morone saxatilis [4]: 1.74

OC[C@H]1O[C@@H](O[C@@H]2[C@@H](CO)O[C@](O)(CO)[C@H]2O)[C@H](O)[C@@H](O)[C@H]1O [Galβ1,4Fru f]
Relative inhibitory activity, Danio rerio [1]: 1.0
Relative inhibitory activity, Bufo arenarum [2]: 1.0
Relative inhibitory activity, Morone saxatilis [4]: 1.9

CC(=O)N[C@H]1[C@@H](O[C@H]2[C@@H](O)[C@@H](CO)O[C@@H](O)[C@@H]2O[C@@H]2O[C@@H](C)[C@@H](O)[C@@H](O)[C@@H]2O)O[C@H](CO)[C@H](O)[C@@H]1O [A-trisaccharide]
Fold less effective than lactose as inhibitor ([4]; Msgal1-L1 binding to ASF): threefold less effective
